Reference: patent US8263108B2, “Zero-order prolonged release coaxial implants” (Durect Corporation, priority 2001, dated 2012)

Key:
[1] = In vitro dissolution of cromolyn sodium coaxial implants; assay type: physicochemical; settings: 50 wt % cromolyn/PCL core, PBS pH 7.4, 37° C.
Procedure: Coaxial rods were produced by operating the two Randcastle extruders simultaneously. The core material (cromolyn/PCL) was fed through the center orifice of the die on the first extruder to form the implant core. […] Individual implants with a diameter of approximately 2 mm were cut to a length of 2 cm. The exposed ends were sealed with the same polymer as the membrane. Cromolyn release was determined in vitro using a simple dissolution test. Individual implants were placed in 4-oz amber jars with 40 mL of buffer (phosphate buffered saline, pH 7.4, with 0.05% sodium azide) and incubated at 37° C. Periodically, aliquots of buffer were removed and replaced with fresh buffer. The cromolyn concentration in each sample was determined by HPLC.

[2] = Release of interferon from implants incubated in phosphate buffered saline; assay type: physicochemical; settings: 30 vol % NaCl/PCL tubing filled with 20 mg α-interferon suspension in SAIB, ends sealed
Procedure: Using nitrogen gas as the core feed, a mixture comprising 30 vol % NaCl in PCL was extruded as described above through the outer ring of a coaxial die to form tubing having an overall diameter of about 3 mm. Implants containing α-interferon were prepared from the tubing by filling a short length of tubing with a suspension containing 20 mg of α-interferon in sucrose acetate isobutyrate (SAIB) and sealing the ends of the tube.
The implants, when incubated in phosphate buffered saline, released interferon for several days.

Row | Compound | effect of membrane thickness on release of cromolyn ([1]; 30 vol % cromolyn/PCL membrane (pore-forming agent), FIG. 8) | release from sealed versus unsealed implant ([1]; 30 vol % lactose/PCL membrane, FIG. 9) | duration of interferon release [2]
1 | O=C(O)c1cc(=O)c2c(OCC(O)COc3cccc4oc(C(=O)O)cc(=O)c34)cccc2o1 [cromolyn, cromolyn sodium] | A thicker polymer membrane causes slower release | the unsealed implant releases faster than the sealed | –
2 | α-interferon | – | – | several days
